Among the data in US9156845B2, “4-(substituted amino)-7H-pyrrolo[2,3-d] pyrimidines as LRRK2 inhibitors” (Pfizer Inc., priority 2012, dated 2015) are IC50 values, retold here.

For orientation: IC50 means the concentration that inhibits the measured activity by half.

For one assay, the target named is mutant G2019S LRRK2 (Homo sapiens (Human), UniProt Q5S007, G2019S). Nature of the assay: LRRK2 Lantha Screen kinase assay, mutant enzyme. Format: biochemical. Particulars: geometric mean of 2-5 determinations unless otherwise indicated (a: >=6 determinations; b: single determination).
For assay [1], the target named is GST-tagged truncated LRRK2 (Homo sapiens (Human), UniProt Q5S007). Kind of assay: LRRK2 Lantha Screen kinase assay. As to conditions: geometric mean of 2-5 determinations unless otherwise indicated (a: >=6 determinations; b: single determination); read-out: LRRK2 WT IC50. It is filed as biochemical.
Chain of GST-tagged truncated LRRK2 (Q5S007 970-2527): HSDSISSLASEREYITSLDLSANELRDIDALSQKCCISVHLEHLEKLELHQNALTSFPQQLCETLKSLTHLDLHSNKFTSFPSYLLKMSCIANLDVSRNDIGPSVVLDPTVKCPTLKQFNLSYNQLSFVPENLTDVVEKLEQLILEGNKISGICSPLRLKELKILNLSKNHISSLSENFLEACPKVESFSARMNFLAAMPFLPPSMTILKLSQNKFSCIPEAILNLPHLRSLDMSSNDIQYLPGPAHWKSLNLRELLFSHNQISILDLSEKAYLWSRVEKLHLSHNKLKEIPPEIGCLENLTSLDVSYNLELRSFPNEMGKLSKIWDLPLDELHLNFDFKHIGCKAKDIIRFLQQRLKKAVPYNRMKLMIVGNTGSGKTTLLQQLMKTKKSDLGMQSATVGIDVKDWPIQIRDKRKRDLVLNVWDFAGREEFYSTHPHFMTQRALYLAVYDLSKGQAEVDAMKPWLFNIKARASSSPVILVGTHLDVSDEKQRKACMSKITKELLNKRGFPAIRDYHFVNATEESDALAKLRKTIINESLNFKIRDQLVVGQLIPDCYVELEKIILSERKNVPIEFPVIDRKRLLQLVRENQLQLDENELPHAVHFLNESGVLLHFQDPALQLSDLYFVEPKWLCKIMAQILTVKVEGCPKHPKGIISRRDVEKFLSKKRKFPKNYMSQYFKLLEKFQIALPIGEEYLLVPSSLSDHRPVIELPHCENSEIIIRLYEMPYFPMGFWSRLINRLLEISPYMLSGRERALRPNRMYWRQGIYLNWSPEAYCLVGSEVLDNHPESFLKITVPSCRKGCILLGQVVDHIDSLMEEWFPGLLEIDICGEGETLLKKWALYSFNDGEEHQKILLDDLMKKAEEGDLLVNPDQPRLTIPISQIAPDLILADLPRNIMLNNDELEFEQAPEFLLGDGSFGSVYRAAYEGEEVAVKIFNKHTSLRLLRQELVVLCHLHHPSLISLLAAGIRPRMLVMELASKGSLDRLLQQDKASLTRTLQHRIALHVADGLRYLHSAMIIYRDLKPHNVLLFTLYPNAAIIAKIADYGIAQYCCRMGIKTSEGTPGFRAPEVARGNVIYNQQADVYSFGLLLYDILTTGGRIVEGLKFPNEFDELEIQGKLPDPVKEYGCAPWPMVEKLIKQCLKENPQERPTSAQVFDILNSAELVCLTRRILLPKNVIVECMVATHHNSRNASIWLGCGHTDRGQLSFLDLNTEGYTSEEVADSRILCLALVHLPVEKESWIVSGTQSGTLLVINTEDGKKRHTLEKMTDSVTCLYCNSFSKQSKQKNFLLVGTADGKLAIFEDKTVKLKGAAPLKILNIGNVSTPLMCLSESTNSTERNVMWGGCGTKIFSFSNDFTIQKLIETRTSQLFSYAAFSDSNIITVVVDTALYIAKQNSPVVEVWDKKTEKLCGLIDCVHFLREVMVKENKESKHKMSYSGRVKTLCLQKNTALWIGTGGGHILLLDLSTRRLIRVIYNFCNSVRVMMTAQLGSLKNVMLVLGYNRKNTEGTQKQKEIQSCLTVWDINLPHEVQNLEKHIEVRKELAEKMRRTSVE
Method: LRRK2 kinase activity was measured using Lantha Screen technology from Invitrogen. GST-tagged truncated LRRK2 from Invitrogen (Cat # PV4874) was incubated with a fluorescein-labeled peptide substrate based upon ezrin/radixin/moesin (ERM), also known as LRRKtide (Invitrogen cat #PR8976A), in the presence of a dose response of compound. Upon completion, the assay was stopped and detected with a terbium labeled anti-phospho-ERM antibody (Invitrogen, cat #PR8975A). […] Aliquots (3.5 μL) of the 100% DMSO dose response were mixed with 46.5 μL water then 1 μL of this mixture was added to the 3 μL substrate mix in the 384-well plate. The kinase reaction was started with 3 μL of a working solution of LRRK2 enzyme at a concentration of 4 μg/mL. […] The reaction was allowed to progress at room temperature for two hours and then stopped with the addition of 7 μL of detection buffer (20 mM Tris pH 7.6, 0.01% NP-40, 0.02% NaN3, 6 mM EDTA with 2 nM terbium labeled anti-phospho-ERM).

Chain of mutant G2019S LRRK2 (Q5S007 970-2527 G2019S): as the sequence (Q5S007 970-2527) above, with G1050S counted along it

Consider `CN(C)C(=O)CCNc1ncnc2[nH]cc(-c3cccc(C#N)c3)c12` [Example 31, N^3-[5-(3-cyanophenyl)-7H-pyrrolo[2,3-d]pyrimidin-4-yl]-N,N-dimethyl-beta-alaninamide], for which the results for the concentration for half-maximal inhibition (IC50) (on mutant G2019S LRRK2; in assay [1]) were 0.248 µM and 0.054 µM, respectively.
For `N#Cc1cccc(-c2c[nH]c3ncnc(N4CCC(F)(F)CC4)c23)c1` [Example 32, 3-[4-(4,4-difluoropiperidin-1-yl)-7H-pyrrolo[2,3-d]pyrimidin-5-yl]benzonitrile], the IC50 on mutant G2019S LRRK2 amounted to 0.333 µM; in assay [1] it was 0.067 µM.
Consider `N#Cc1cccc(-c2c[nH]c3ncnc(N4CCC(F)CC4)c23)c1` [Example 33, 3-[4-(4-fluoropiperidin-1-yl)-7H-pyrrolo[2,3-d]pyrimidin-5-yl]benzonitrile], for which the half-inhibitory concentration (IC50) was found to be 0.096 µM against mutant G2019S LRRK2 and 0.017 µM in assay [1].
The matching figures for `N#Cc1cccc(-c2c[nH]c3ncnc(N4CCC(F)CC4)c23)c1` [Example 33A, 3-[4-(4-fluoropiperidin-1-yl)-7H-pyrrolo[2,3-d]pyrimidin-5-yl]benzonitrile]: 0.056 µM and 0.017 µM.
As to `N#Cc1cccc(-c2c[nH]c3ncnc(N4CCC(c5cc[nH]n5)CC4)c23)c1` [Example 34, 3-{4-[4-(1H-pyrazol-3-yl)piperidin-1-yl]-7H-pyrrolo[2,3-d]pyrimidin-5-yl}benzonitrile], the values for the IC50 (at mutant G2019S LRRK2; in assay [1]) were 0.136 µM and 0.069 µM, respectively.
The matching figures for `N#Cc1cccc(-c2c[nH]c3ncnc(N4CC[C@H](F)C4)c23)c1` [Example 35, 3-{4-[(3S)-3-fluoropyrrolidin-1-yl]-7H-pyrrolo[2,3-d]pyrimidin-5-yl}benzonitrile]: 0.155 µM and 0.03 µM.
For `N#Cc1cccc(-c2c[nH]c3ncnc(N4CCOC(c5cc[nH]n5)C4)c23)c1` (centres unmarked) [Example 36, 3-{4-[2-(1H-pyrazol-3-yl)morpholin-4-yl]-7H-pyrrolo[2,3-d]pyrimidin-5-yl}benzonitrile], the 50% inhibitory concentration (IC50) at mutant G2019S LRRK2 amounted to 0.238 µM; in assay [1], 0.043 µM.
The matching figures for `N#Cc1cccc(-c2c[nH]c3ncnc(N4CCCC(c5cc[nH]n5)C4)c23)c1` (centres unmarked) [Example 37, 3-{4-[3-(1H-pyrazol-3-yl)piperidin-1-yl]-7H-pyrrolo[2,3-d]pyrimidin-5-yl}benzonitrile]: 0.2 µM and 0.084 µM.
The matching figures for `N#Cc1cccc(-c2c[nH]c3ncnc(N4CCCC(c5ncc[nH]5)C4)c23)c1` (centres unmarked) [Example 38, 3-{4-[3-(1H-imidazol-2-yl)piperidin-1-yl]-7H-pyrrolo[2,3-d]pyrimidin-5-yl}benzonitrile]: 0.331 µM and 0.053 µM.
For `CN1CCCC(Nc2ncnc3[nH]cc(-c4cccc(C#N)c4)c23)C1` (centres unmarked) [Example 39, 3-{4-[(1-methylpiperidin-3-yl)amino]-7H-pyrrolo[2,3-d]pyrimidin-5-yl}benzonitrile] the same measures were 0.243 µM and 0.078 µM.
As to `N#Cc1cccc(-c2c[nH]c3ncnc(N4CCCC5(CNC(=O)C5)C4)c23)c1` (centres unmarked) [Example 40, 3-[4-(3-oxo-2,7-diazaspiro[4.5]dec-7-yl)-7H-pyrrolo[2,3-d]pyrimidin-5-yl]benzonitrile], the IC50 against mutant G2019S LRRK2 stood at 0.119 µM; in assay [1] it was 0.035 µM.
The matching figures for `N#Cc1cccc(-c2c[nH]c3ncnc(NCCN4CCOCC4)c23)c1` [Example 42, 3-(4-{[2-(morpholin-4-yl)ethyl]amino}-7H-pyrrolo[2,3-d]pyrimidin-5-yl)benzonitrile]: 0.487 µM and 0.089 µM.
The matching figures for `N#Cc1cccc(-c2c[nH]c3ncnc(N4CCCC5(CCOC5)C4)c23)c1` (centres unmarked) [Example 43, 3-[4-(2-oxa-7-azaspiro[4.5]dec-7-yl)-7H-pyrrolo[2,3-d]pyrimidin-5-yl]benzonitrile]: 0.244 µM and 0.034 µM.
Consider `CC(=O)NC1CCN(c2ncnc3[nH]cc(-c4cccc(C#N)c4)c23)CC1` [Example 44, N-{1-[5-(3-cyanophenyl)-7H-pyrrolo[2,3-d]pyrimidin-4-yl]piperidin-4-yl}acetamide], for which the figures for the concentration for half-maximal inhibition (IC50) (against mutant G2019S LRRK2; in assay [1]) were 0.19 µM and 0.05 µM, respectively.
For `C[C@H]1CCCN(c2ncnc3[nH]cc(-c4ccc5[nH]ncc5c4)c23)C1` [Example 45, 5-(1H-indazol-5-yl)-4-[(3S)-3-methylpiperidin-1-yl]-7H-pyrrolo[2,3-d]pyrimidine] the same measures were 0.066 µM and 0.067 µM.
The matching figures for `C[C@H]1CCCN(c2ncnc3[nH]cc(-c4cccc(S(N)(=O)=O)c4)c23)C1` [Example 46, 3-{4-[(3S)-3-methylpiperidin-1-yl]-7H-pyrrolo[2,3-d]pyrimidin-5-yl}benzenesulfonamide]: 0.033 µM and 0.024 µM.
For `C[C@H]1CCCN(c2ncnc3[nH]cc(-c4ccccc4F)c23)C1` [Example 47, 5-(2-fluorophenyl)-4-[(3S)-3-methylpiperidin-1-yl]-7H-pyrrolo[2,3-d]pyrimidine] the same measures were 0.122 µM and 0.097 µM.
Regarding `C[C@H]1CCCN(c2ncnc3[nH]cc(-c4cccc5[nH]ncc45)c23)C1` [Example 48, 5-(1H-indazol-4-yl)-4-[(3S)-3-methylpiperidin-1-yl]-7H-pyrrolo[2,3-d]pyrimidine], the values for the concentration for half-maximal inhibition (IC50) (against mutant G2019S LRRK2; in assay [1]) were 0.014 µM and 0.01 µM, respectively.
For `Cc1cc(-c2c[nH]c3ncnc(N4CCC[C@H](C)C4)c23)cnc1F` [Example 49, 5-(6-fluoro-5-methylpyridin-3-yl)-4-[(3S)-3-methylpiperidin-1-yl]-7H-pyrrolo[2,3-d]pyrimidine] the same measures were 0.065 µM and 0.064 µM.
For `C[C@H]1CCCN(c2ncnc3[nH]cc(-c4ccc5c(c4)CNC5=O)c23)C1` [Example 50, 5-{4-[(3S)-3-methylpiperidin-1-yl]-7H-pyrrolo[2,3-d]pyrimidin-5-yl}-2,3-dihydro-1H-isoindol-1-one] the same measures were 0.033 µM and 0.033 µM.
Regarding `C[C@H]1CCCN(c2ncnc3[nH]cc(-c4cccnc4)c23)C1` [Example 51, 4-[(3S)-3-methylpiperidin-1-yl]-5-(pyridin-3-yl)-7H-pyrrolo[2,3-d]pyrimidine], the IC50 came out at 0.095 µM at mutant G2019S LRRK2 and 0.056 µM in assay [1].
In the case of `Cc1cncc(-c2c[nH]c3ncnc(N4CCC[C@H](C)C4)c23)c1` [Example 52, 4-[(3S)-3-methylpiperidin-1-yl]-5-(5-methylpyridin-3-yl)-7H-pyrrolo[2,3-d]pyrimidine], the results for the IC50 (against mutant G2019S LRRK2; in assay [1]) were 0.019 µM and 0.015 µM, respectively.
In the case of `C[C@H]1CCCN(c2ncnc3[nH]cc(-c4cnc5[nH]ccc5c4)c23)C1` [Example 53, 4-[(3S)-3-methylpiperidin-1-yl]-5-(7H-pyrrolo[2,3-b]pyridin-5-yl)-7H-pyrrolo[2,3-d]pyrimidine], the half-inhibitory concentration (IC50) against mutant G2019S LRRK2 was 0.069 µM; in assay [1] it was 0.074 µM.
Take `C[C@H]1CCCN(c2ncnc3[nH]cc(-c4ccc5c(c4)C(=O)NC5)c23)C1` [Example 54, 6-{4-[(3S)-3-methylpiperidin-1-yl]-7H-pyrrolo[2,3-d]pyrimidin-5-yl}-2,3-dihydro-1H-isoindol-1-one]: the results for the IC50 (on mutant G2019S LRRK2; in assay [1]) were 0.059 µM and 0.068 µM, respectively.
For `C[C@H]1CCCN(c2ncnc3[nH]cc(-c4cnc5cc[nH]c5c4)c23)C1` [Example 55, 4-[(3S)-3-methylpiperidin-1-yl]-5-(1H-pyrrolo[3,2-b]pyridin-6-yl)-7H-pyrrolo[2,3-d]pyrimidine] the same measures were 0.05 µM and 0.053 µM.
For `C[C@H]1CCCN(c2ncnc3[nH]cc(-c4ccc(O)cc4)c23)C1` [Example 56, 4-{4-[(3S)-3-methylpiperidin-1-yl]-7H-pyrrolo[2,3-d]pyrimidin-5-yl}phenol] the same measures were 0.028 µM and 0.026 µM.
The matching figures for `C[C@H]1CCCN(c2ncnc3[nH]cc(-c4ccc(C(N)=O)cc4)c23)C1` [Example 57, 4-{4-[(3S)-3-methylpiperidin-1-yl]-7H-pyrrolo[2,3-d]pyrimidin-5-yl}benzamide]: 0.009 µM and 0.013 µM.
On to `C[C@H]1CCCN(c2ncnc3[nH]cc(-c4cccc(O)c4)c23)C1` [Example 58, 3-{4-[(3S)-3-methylpiperidin-1-yl]-7H-pyrrolo[2,3-d]pyrimidin-5-yl}phenol], for which the IC50 was 0.012 µM against mutant G2019S LRRK2 and 0.009 µM in assay [1].
On to `Cc1cnc(Cl)c(-c2c[nH]c3ncnc(N4CCC[C@H](C)C4)c23)c1` [Example 59, 5-(2-chloro-5-methylpyridin-3-yl)-4-[(3S)-3-methylpiperidin-1-yl]-7H-pyrrolo[2,3-d]pyrimidine], for which the 50% inhibitory concentration (IC50) (against mutant G2019S LRRK2; in assay [1]) was 0.03 µM in each case.
Turning to `C[C@H]1CCCN(c2ncnc3[nH]cc(-c4cccc(C(N)=O)c4)c23)C1` [Example 60, 3-{4-[(3S)-3-methylpiperidin-1-yl]-7H-pyrrolo[2,3-d]pyrimidin-5-yl}benzamide], the IC50 against mutant G2019S LRRK2 was 0.058 µM; in assay [1], 0.086 µM.
For `N#Cc1cccc(-c2c[nH]c3ncnc(N4CCCC(F)C4)c23)c1` (centres unmarked) [Example 61, 3-[4-(3-fluoropiperidin-1-yl)-7H-pyrrolo[2,3-d]pyrimidin-5-yl]benzonitrile], the half-maximal inhibitory concentration (IC50) against mutant G2019S LRRK2 is 0.08 µM; in assay [1], 0.012 µM.
`CC1CCN(c2ncnc3[nH]cc(-c4cccc(C#N)c4)c23)CC1` [Example 62, 3-[4-(4-methylpiperidin-1-yl)-7H-pyrrolo[2,3-d]pyrimidin-5-yl]benzonitrile]: the IC50 at mutant G2019S LRRK2 is 0.273 µM; in assay [1], 0.091 µM.
As for `C[C@H]1CCCN(c2ncnc3[nH]cc(-c4cccc(C(=O)O)c4)c23)C1` [Example 63, 3-{4-[(3S)-3-methylpiperidin-1-yl]-7H-pyrrolo[2,3-d]pyrimidin-5-yl}benzoic acid], the IC50 was found to be 0.039 µM against mutant G2019S LRRK2 and 0.055 µM in assay [1].
For `CNc1ncnc2[nH]cc(-c3cccc(C#N)c3)c12` [Example 64, 3-[4-(methylamino)-7H-pyrrolo[2,3-d]pyrimidin-5-yl]benzonitrile] the same measures were 0.097 µM and 0.045 µM.
